Molecules are shown by their SMILES.

Series [1] deals with T1, ASGPR (Mus musculus, UniProt P24721+P34927).
T1 construct: host or cells: murine hepatocytes (purchased, plated in 24-well plates)
T1 sequence (P34927 1-284): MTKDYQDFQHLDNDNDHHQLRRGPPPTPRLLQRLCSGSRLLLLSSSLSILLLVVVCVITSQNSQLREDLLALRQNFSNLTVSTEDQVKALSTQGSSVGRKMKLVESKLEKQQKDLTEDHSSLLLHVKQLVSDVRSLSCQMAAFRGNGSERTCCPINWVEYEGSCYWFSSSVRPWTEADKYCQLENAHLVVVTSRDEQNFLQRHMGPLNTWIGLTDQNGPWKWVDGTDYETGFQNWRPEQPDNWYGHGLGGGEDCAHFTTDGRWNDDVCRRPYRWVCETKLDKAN
T1 sequence (P24721 1-301): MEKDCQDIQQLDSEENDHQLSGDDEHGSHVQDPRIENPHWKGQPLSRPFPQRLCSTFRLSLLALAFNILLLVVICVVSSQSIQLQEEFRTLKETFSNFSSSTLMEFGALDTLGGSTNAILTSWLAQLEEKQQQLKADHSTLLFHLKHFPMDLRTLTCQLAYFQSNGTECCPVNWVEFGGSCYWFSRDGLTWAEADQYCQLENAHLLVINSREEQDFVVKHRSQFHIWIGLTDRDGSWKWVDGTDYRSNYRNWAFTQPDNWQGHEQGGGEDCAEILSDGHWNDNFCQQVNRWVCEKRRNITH
Briefly: Competitive binding assay with Eu-ASOR on murine hepatocyte (time-resolved fluorometry). The conditions noted are these: for binding to ASGPR compared with that of YEE or YDD: relative to YEE or YDD, from the IC50 data of Table 1. How it is done:
With Eu-asialo-orosomucoid (Eu-ASOR) as a reference material, the binding affinity of the multivalent glyco-ligands (DCM-Lys(ah-GalNAc)3, DCM-Lys(GahGalNAc)3, DCM-Lys(ahLac)3, AHA-Asp[DCM-Lys(ahLac)3]2) and murine hepatocyte can be determined by competitive assay to obtain IC50 (concentration of 50% inhibition), and the lower the IC50 is, the higher the binding affinity. The murine hepatocyte (Lonza Biotechnology Company, Walkersville, Md.) is plated in a 24-well plate in advance, and the reaction occurs in each well, into which (i) Eu-ASOR 10 nM (ii) hepatocyte basic medium with 5 mM calcium chloride, and (iii) five different concentrations of multivalent ligands of 1 μM-0.8 nM are added. After culturing with shaking for 1 hr in the cold, the unbound ligands are removed by washing with the hepatocyte basic medium containing calcium chloride. Time-resolved fluorometry (TRF) is performed, using an enhancement solution (15 μM β-naphthoyl trifluoroacetone, 50 μM tri-n-octyl-phosphine oxide, 0.1% triton X-100 in 0.1 M acetic acid, titrated with potassium hydrogen phthalate to pH 3.2). The enhancement solution reacts with Eu^3+ to form an Eu chelate, which can emit at 615 nm when excited at 340 nm. With the logarithm of the concentration of saccharide chain peptide as X axis, the emitted fluorescence value as Y axis, the fluorescence value without adding glycopeptide being set as 100%, the IC50 values of each ligand can be calculated accordingly.

For series [2] the following is noted: as first reported by Lee (1983); cited from earlier work.

Consider `CC(=O)N[C@H]1[C@H](OCCCCCCNC(=O)CNC(=O)CN(CC(=O)NCC(=O)NCCCCCCO[C@@H]2O[C@H](CO)[C@H](O)[C@H](O)[C@H]2NC(C)=O)[C@@H](CCCCN)C(=O)NCC(=O)NCCCCCCO[C@@H]2O[C@H](CO)[C@H](O)[C@H](O)[C@H]2NC(C)=O)O[C@H](CO)[C@H](O)[C@@H]1O` [DCM-Lys(GahGalNAc)3], for which the IC50 in series [1] (competition with 10 nM Eu-ASOR, murine hepatocyte, 5 mM calcium chloride, 1 hr in the cold, read-out: IC50 (concentration of 50% inhibition), binding strength of saccharide chains and murine hepatocyte) was found to be 1 nM. For the same compound, the “binding to ASGPR compared with that of YEE or YDD” value in series [1] was found to be 10 times.

Regarding `CC(=O)N[C@H]1[C@H](OCCCCCCNC(=O)CC[C@H](NC(=O)CC[C@H](NC(=O)[C@@H](N)Cc2ccc(O)cc2)C(=O)NCCCCCCO[C@@H]2O[C@H](CO)[C@H](O)[C@H](O)[C@H]2NC(C)=O)C(=O)NCCCCCCO[C@@H]2O[C@H](CO)[C@H](O)[C@H](O)[C@H]2NC(C)=O)O[C@H](CO)[C@H](O)[C@@H]1O` [YEE(ahGalNAc)3], the solubility entry in series [2] is given as “poor solubility”.

On to `NCCCCCC(=O)NC(CC(=O)NCCCCC(C(=O)NCCCCCCOC1OC(CO)C(OC2OC(CO)C(O)C(O)C2O)C(O)C1O)N(CC(=O)NCCCCCCOC1OC(CO)C(OC2OC(CO)C(O)C(O)C2O)C(O)C1O)CC(=O)NCCCCCCOC1OC(CO)C(OC2OC(CO)C(O)C(O)C2O)C(O)C1O)C(=O)NCCCCC(C(=O)NCCCCCCOC1OC(CO)C(OC2OC(CO)C(O)C(O)C2O)C(O)C1O)N(CC(=O)NCCCCCCOC1OC(CO)C(OC2OC(CO)C(O)C(O)C2O)C(O)C1O)CC(=O)NCCCCCCOC1OC(CO)C(OC2OC(CO)C(O)C(O)C2O)C(O)C1O` (stereo not shown) [AHA-Asp[DCM-Lys(ahLac)3]2], for which, in series [1], the “binding to ASGPR compared with that of YEE or YDD” value is given as “the same binding strength as that of YEE or YDD”.
